Source: patent US3979513A, “1'-Substituted-9,10-dihydroanthracene-9-spiro-4'-piperidine derivatives” (priority 1974, dated 1976)
Read-outs that look alike come from different tables or passages of the source.

Assay: acute toxicity (LD50) in mice
Conditions: mouse, in vivo
Method: The corresponding intravenous LD50 is 40 mg./kg. Other LD50 values for compounds of the invention when dosed intravenously are as follows: […]

[1] = iv, dosed intravenously (table 1), read-out: LD50

Compound | LD50 (mice, intravenous, read-out: intravenous LD50) | LD50 (mice, oral, read-out: oral LD50) | LD50 [1]
CN1CCC2(CC1)c1ccccc1C(O)c1ccccc12 [10-hydroxy-1'-methyl-9,10-dihydroanthracene-9-spiro-4'-piperidine] | 40 mg/kg | > 250 mg/kg | –
Cc1ccc2c(c1)C1(CCN(C)CC1)c1ccccc1C2O (centres unmarked) [Me 2-Me H OH H, 1',2-dimethyl-10-hydroxy-9,10-dihydroanthracene-9-spiro-4'-piperidine] | – | – | 37 mg/kg
CC(=O)Oc1cccc2c1Cc1ccccc1C21CCN(C)CC1 [Me 4-OAc H H H, 4-acetoxy-1'-methyl-9,10-dihydroanthracene-9-spiro-4'-piperidine] | – | – | 43 mg/kg
CN1CCC2(CC1)c1ccccc1C(C)(O)c1c(O)cccc12 (centres unmarked) [Me 4-OH H OH Me, 4,10-dihydroxy-1',10-dimethyl-9,10-dihydroanthracene-9-spiro-4'-piperidine] | – | – | 25 mg/kg
